What was measured:
[1] = system: P. mirabilis (ATCC29906); assay: Antibacterial strength (bacteriostatic reduction rate) by Methods 1 to 4, broth culture absorbance at 600 nm; format: cell-based; conditions: Proteus mirabilis, 16 hours, 35° C.; for inhibition of growth at 200 µg/mL: amount of antibacterial composition added 0.005 g in 25 ml broth, 3,000 CFU/ml, read-out: Antibacterial strength (%) Method 2; for inhibition of growth at 400 µg/mL: amount of antibacterial composition added 0.01 g in 25 ml broth, 3,000 CFU/ml, read-out: Antibacterial strength (%) Method 4; for inhibition of growth at 600 µg/mL: amount of antibacterial composition added 0.015 g in 25 ml broth, 3,000 CFU/ml, read-out: Antibacterial strength (%) Method 1; for inhibition of growth at 800 µg/mL: amount of antibacterial composition added 0.02 g in 25 ml broth, 3,000 CFU/ml, read-out: Antibacterial strength (%) Method 3
Description: (§1) After 25 ml of a broth-type medium (Nutrient broth, BD DIFCO., 8 g/L) inoculated with 3,000 CFU/ml bacteria is put into a 50 mL conical tube, 0.015 g of the antibacterial composition is added thereto and suspended (by vortexing), a sufficiently mixed solution is incubated for 16 hours in a shaking water bath maintained at 35° C.
(§2) After the incubated solution was diluted to ⅕ using a 1×PBS buffer solution, absorbance (λ=600 nm) was measured using a UV/Vis spectrophotometer, and the antibacterial strength, which is a bacteriostatic reduction rate, is calculated by the following equation by comparing the measured absorbance with a solution incubated without the addition of the antibacterial composition.
(§3) Antibacterial strength(%)=(1−Asample/AReference)×100 • Asample=Absorbance of medium solution incubated by adding antibacterial composition • AReference=Absorbance of medium solution incubated without addition of antibacterial composition
(§4) This method is the same as Method 1, except that 0.005 g of the antibacterial composition is added instead of 0.015 g of the antibacterial composition.
(§5) This method is the same as Method 1, except that 0.02 g of the antibacterial composition is added instead of 0.015 g of the antibacterial composition.
(§6) This method is the same as Method 1, except that 0.01 g of the antibacterial composition is added instead of 0.015 g of the antibacterial composition.
The antibacterial strength of Monomers 1 to 10 and Comparative Monomers 1 and 2 by Methods 1 to 4 was measured, and is shown in the following Table 1. In this case, the P. mirabilis (ATCC29906) bacteria were used.

[2] = system: P. mirabilis (ATCC29906); assay: Time at which 99.9% of the antibacterial strength is confirmed (Methods 1 to 4); format: cell-based, Proteus mirabilis; conditions: for Time at which 99.9% of the antibacterial strength is confirmed, Method 2: amount of antibacterial composition added 0.005 g; for Time at which 99.9% of the antibacterial strength is confirmed, Method 4: amount of antibacterial composition added 0.01 g; for Time at which 99.9% of the antibacterial strength is confirmed, Method 1: amount of antibacterial composition added 0.015 g; for Time at which 99.9% of the antibacterial strength is confirmed, Method 3: amount of antibacterial composition added 0.02 g
Description: as §1, §2, §3, §4, §5, §6
The time at which 99.9% of the antibacterial strength of Monomers 1 to 10 and Comparative Monomers 1 and 2 is confirmed is shown in the following Table 2.

[3] = Acute oral toxicity dose LD50 by 3T3 Neutral Red Uptake (NRU) assay (OECD Guidance Document No 129); format: cell-based; conditions: mouse, 3T3 cells, po, calculated from 3T3 NRU assay
Description: (§7) The acute oral toxicity dose LD50 and acute percutaneous toxicity dose LD50 were measured by 3T3 Neutral Red Uptake (NRU) assay (OECD Guidance Document No 129). Specifically, the acute oral toxicity dose LD50 and acute percutaneous toxicity dose LD50 can be calculated by the following method: […]

[4] = Acute percutaneous toxicity dose LD50 by 3T3 Neutral Red Uptake (NRU) assay (OECD Guidance Document No 129); format: cell-based; conditions: mouse, 3T3 cells, other: percutaneous, calculated from 3T3 NRU assay
Description: as §7

[5] = system: 3T3; assay: Acute oral toxicity dose LD50 by 3T3 Neutral Red Uptake (NRU) assay (OECD Guidance Document No 129); format: cell-based; conditions: calculated from 3T3 NRU assay
Description: as §7

Compound	inhibition of growth at 200 µg/mL [1]	inhibition of growth at 400 µg/mL [1]	inhibition of growth at 600 µg/mL [1]	Time at which 99.9% of the antibacterial strength is confirmed, Method 2 [2]	Time at which 99.9% of the antibacterial strength is confirmed, Method 4 [2]	Time at which 99.9% of the antibacterial strength is confirmed, Method 1 [2]	Time at which 99.9% of the antibacterial strength is confirmed, Method 3 [2]	LD50 [3]	LD50 [4]	inhibition of growth at 800 µg/mL [1]	Acute oral toxicity dose (mg/Kg) LD50 [5]
C=CC(=O)OCC[N+](CCCC)(CCCC)CCCCCCCCCCCC [Monomer 3]	99.9%	99.9%	99.9%	Within 1 hour	Within 1 hour	Within 1 hour	Within 1 hour	843 mg/kg	≥ 2000 mg/kg	–	–
C=CC(=O)OCCCC[N+](CCCC)(CCCC)CCCCCCCC [Monomer 9]	61.2%	70%	99.9%	–	–	Within 1 hour	Within 1 hour	≥ 1000 mg/kg	≥ 2000 mg/kg	99.9%	1,498 mg/Kg
C=CC(=O)OCC[N+](CCCCCCCCCCCCCC)(CCCCCCCCCCCCCC)CCCCCCCCCCCCCC [Comparative Monomer 2, reference compound]	99.9%	99.9%	99.9%	Within 1 hour	Within 1 hour	Within 1 hour	Within 1 hour	231 mg/kg	–	99.9%	–
C=C(C)C(=O)OCC[N+](CCCC)(CCCCCC)CCCCCCCCCC (centres unmarked) [Monomer 6]	99.9%	99.9%	99.9%	Within 1 hour	Within 1 hour	Within 1 hour	Within 1 hour	≥ 1000 mg/kg	≥ 2000 mg/kg	99.9%	1,111 mg/Kg
C=C(C)C(=O)OCC[N+](CCCCCC)(CCCCCC)CCCCCCCCCC [Monomer 5]	99.9%	99.9%	99.9%	Within 1 hour	Within 1 hour	Within 1 hour	Within 1 hour	≥ 1000 mg/kg	≥ 2000 mg/kg	99.9%	1,078 mg/Kg
C=CC(=O)OCC[N+](CCCC)(CCCC)CCCCCCCCCC [Monomer 2]	99.9%	99.9%	99.9%	Within 1 hour	Within 1 hour	Within 1 hour	Within 1 hour	≥ 1000 mg/kg	≥ 2000 mg/kg	99.9%	1,369 mg/Kg
C=C(C)C(=O)OCC[N+](CCCC)(CCCCCCCCCC)CCCCCCCCCC [Monomer 8]	99.9%	99.9%	99.9%	Within 1 hour	Within 1 hour	Within 1 hour	Within 1 hour	869 mg/kg	≥ 2000 mg/kg	99.9%	–
C=CC(=O)OCC[N+](CCCCCCCC)(CCCCCCCC)CCCCCCCC [Monomer 4]	99.9%	99.9%	99.9%	Within 1 hour	Within 1 hour	Within 1 hour	Within 1 hour	≥ 1000 mg/kg	≥ 2000 mg/kg	99.9%	1,442 mg/Kg
C=C(C)C(=O)OCC[N+](CCCC)(CCCCCCCC)CCCCCCCCCC (centres unmarked) [Monomer 7]	99.9%	99.9%	99.9%	Within 1 hour	Within 1 hour	Within 1 hour	Within 1 hour	998 mg/kg	≥ 2000 mg/kg	99.9%	–
C=CC(=O)OCC[N+](CCCC)(CCCC)CCCCCCCC [Monomer 1]	59.3%	68.2%	99.9%	–	–	Within 1 hour	Within 1 hour	≥ 1000 mg/kg	≥ 2000 mg/kg	99.9%	1,708 mg/Kg
C=CC(=O)OCCCC[N+](CCCCCCCC)(CCCCCCCC)CCCCCCCC [Monomer 10]	99.9%	99.9%	99.9%	Within 1 hour	Within 1 hour	Within 1 hour	Within 1 hour	≥ 1000 mg/kg	≥ 2000 mg/kg	99.9%	1,242 mg/Kg
C=CC(=O)OCC[N+](CCCC)(CCCC)CCCCCC [Comparative Monomer 1, reference compound]	22.6%	30.7%	38.8%	–	–	–	–	2360 mg/kg	–	46.9%	–
